Data published in patent US20220023269A1, “Methods Of Treating Diabetes In Severe Insulin-Resistant Diabetic Subjects” (Balticgruppen Bio AB, priority 2018, published 2022).

Key:
muscle = conditions: in vivo; cited from earlier work
hypertensive rats = conditions: acute; cited from earlier work
DIO mice = assay: Prevention of dysglycemia and insulin resistance in DIO B6 mice (oral gavage, 8 w); format: in vivo; conditions: 100 mg/kg/day each, oral gavage
Experimental: MATSUDA index was calculated via: […] […] All cell lines were lysed in 0.1 M Tris-HCl, pH 6.8, 2% SDS, 10 mM sodium fluoride (SIGMA #S7920), 10 mM β-glycerophosphate (SIGMA #G6376), and 1 mM sodium vanadate (SIGMA #72060) and supernatant collected after 1 minute at 14,000 rpm. Islets (human and mouse) were lysed in 0.1 M Tris-HCl, pH 6.8, 2% SDS, protease inhibitor (Roche #04 693 124 001) and phosphatase inhibitor (Roche #04 906 837 001). […] The supernatant was collected after 2 min at 14,000 rpm. This procedure was repeated until all fat was eliminated and the supernatant was clear, at 4° C. Samples were analysed on 4-15% polyacrylamide gels. Values were normalised toward AMPKα, β-Actin, GAPDH or the respective non-phosphorylated counterpart. For RNA purification calf muscle, iWAT, interscapular BAT, and left lateral liver lobe was crushed in a pestle using liquid nitrogen before turning to respective RNA kit. RNA from liver was prepared using Total RNA isolation Nucleospin II Kit (Macherey-Nagel #740955.50). RNA from adipose tissue was prepared using RNeasy Lipid Tissue Mini kit (Qiagen #74804). RNA from calf muscle tissue was prepared using RNeasy Fibrous Tissue Mini kit (Qiagen #74704). First strand cDNA synthesis was done using SuperScript III (First-Strand Synthesis SuperMix for qRT-PCR, Invitrogen #11752-250) according to the manufacturer's instructions. Total RNA was prepared from isolated islets using RNeasy Micro Kit (Qiagen #74004) and first strand cDNA synthesis was done using Superscript III (Invitrogen #18080-051) according to the manufacturer's instructions. Quantification of mRNA expression levels was performed essentially as previously described (Reference 3).

[1] = test system: diet-induced obese C57BL/6J mice; assay: Combination therapy AMPK activator + SGLT2 inhibitor in DIO mice; format: in vivo; conditions: 2 weeks oral gavage, Compound 1 75 mg/kg, canagliflozin 10 mg/kg
Experimental: Male C57BL/6J mice, 8 weeks of age were purchased from Jackson, Charles River Laboratories, Inc. (Germany). All animals were housed in the Umeå University animal facility (Umeå Centre for Comparative Biology; UCCB) with a 12:12 hour light-dark cycle (lights on at 6 a.m.) and a constant temperature of 21° C. The animals were ear marked with a unique identification number, and groups of 5 mice were housed in transparent polycarbonate cages that comply with the requirements of the Code of Practice for the housing and care of animals used in scientific procedures. Wood chips were used as bedding material and environmental enrichment was provided. Animals were allowed to acclimate for 15 weeks to their new environment before the onset of the study. The animals were allowed ad libitum access to tap water throughout the accommodation and study period. During the acclimation period, the animals were allowed a standard pelleted diet (CRM (E) Rodent, Special Diets Services, Scanbur BK, Sweden). At the start of the study, the standard diet was changed to a very high fat diet (vHFD; Cat. No. D12492, Research Diets, Inc.) and this diet was kept throughout the whole study period. All of the procedures were approved by the Local Ethics Review Committee on Animal Experiments, Umeå Region.
23 Weeks old male C57BL/6J mice were fed HFD to promote diet-induced obesity (DIO) and administered once daily by oral gavage; vehicle (phosphate buffer pH 7.3, 2% w/v methyl cellulose; n=11), canagliflozin 10 mg/kg (n=14), Compound 1 at 75 mg/kg (n=14) and the combination of canagliflozin 10 mg/kg and Compound 1 at […] (n=15). After 2 weeks of treatment, fasted (6 hour) blood glucose and plasma insulin levels (determined in tail vein blood samples) were analysed. Food intake and weight were monitored throughout the study.
Blood samples were collected from the tail vein in Potassium-EDTA vials and plasma was separated by centrifugation and stored at −20° C. until assayed. Plasma insulin was determined with mouse insulin ELISA (Ultra Sensitive Mouse insulin ELISA Kit). Glucose concentrations were analysed in tail vein blood using a OneTouch® Ultra®2 Blood Glucose Meter (LifeScan, Inc).
Results shown in the figures are expressed as means±standard error of the mean (S.E.M.) for the number of animals per group. Statistical significance between the control group and the three treatment groups were analysed by Student's t-test, with P<0.05 considered statistically significant.

AMPK in HeLa cells = assay: AMPK activation assay in HeLa cells (LKB1 null); format: cell-based, human; conditions: 1 μM, last 20 minutes
Experimental: All cell lines were lysed in 0.1 M Tris-HCl, pH 6.8, 2% SDS, 10 mM sodium fluoride (SIGMA #S7920), 10 mM β-glycerophosphate (SIGMA #G6376), and 1 mM sodium vanadate (SIGMA #72060) and supernatant collected after 1 minute at 14,000 rpm. Islets (human and mouse) were lysed in 0.1 M Tris-HCl, pH 6.8, 2% SDS, protease inhibitor (Roche #04 693 124 001) and phosphatase inhibitor (Roche #04 906 837 001). Right calf muscle, heart, iWAT, and interscapular BAT was crushed in a pestle using liquid nitrogen and homogenised in ice cold RIPA buffer (150 mM sodium chloride (SIGMA #S7653), 1.0% NP40 (USB), 0.5% sodium deoxycholate (SIGMA #D6750), 0.1% SDS, 50 mM Tris pH 8.0, 20 mM sodium pyrophosphate (SIGMA #71515), 10 mM sodium fluoride, 10 mM β-glycerolphosphate, 1 mM sodium vanadate and protease inhibitor cocktail (Roche #04693124001), 1 tablet/10 ml lysis buffer). The supernatant was collected after 2 min at 14,000 rpm. This procedure was repeated until all fat was eliminated and the supernatant was clear, at 4° C. Samples were analysed on 4-15% polyacrylamide gels. Values were normalised toward AMPKα, β-Actin, GAPDH or the respective non-phosphorylated counterpart.
Table 3 contains origin of cell lines, growth conditions and settings for activation of AMPK via the test material. […]

For `NC(=O)c1ncn([C@@H]2O[C@H](CO)[C@@H](O)[C@H]2O)c1N` [AICAR, 5-aminoimidazole-4-carboxyamide-1-β-D-ribofuranoside], the “microvascular perfusion in muscle” value (muscle) is listed as “increases microvascular perfusion in muscle” and the blood pressure (hypertensive rats) is listed as “acutely lower blood pressure”.

In the case of `CN(C)C(=N)N=C(N)N` [Metformin, reference compound], the “HFD-provoked increase in fasted glucose” value (DIO mice; 6 w) is reported as “no significant effect”, the “HFD-provoked increase in fasted plasma insulin” value (DIO mice; 6 w) is reported as “no significant effect” and the “insulin resistance (HOMA-IR)” value (DIO mice; vs vehicle) is reported as “no significant effect”.

In the case of `Cc1ccc([C@@H]2O[C@H](CO)[C@@H](O)[C@H](O)[C@H]2O)cc1Cc1ccc(-c2ccc(F)cc2)s1` [canagliflozin], the HOMA-IR [1] is reported as “lesser reduction”, the fasted blood glucose ([1]; 6 hour fast) is reported as “lesser reduction” and the fasted plasma insulin ([1]; 6 hour fast) is reported as “lesser reduction”.

For `C[C@H](CCC(=O)O)C[C@H](C)C[C@H](C)C(=O)/C=C(\O)[C@H](C)C[C@H](C)C/C=C/[C@@H](C)[C@@H](O)[C@@H](C)[C@@H](O)C[C@@H]1CC[C@@](C)([C@H]2CC[C@@](C)([C@@H](C)O)O2)O1` [ionomycin, reference compound], the “AMPK activation (control)” value (AMPK in HeLa cells) was “readily activated AMPK”.
